Test results from US20240383852A1, “ANTI-VIRAL COMPOUNDS” (INFEX Therapeutics Limited, priority 2021, published 2024).
Counter-ions that a name gives are not always drawn.

Target: T1, SARS-CoV-2 PLpro (Severe acute respiratory syndrome coronavirus 2, UniProt P0DTD1)
T1 construct: containing 60 nM papain-like protease
Assay: biochemical
Settings: not given

| SMILES | IC50 [µM] |
| --- | --- |
| COc1ccc([C@@H](C)NC(=O)c2cc(N3[C@@H]4CC[C@H]3CN(C)C4)ccc2C)cc1OC [Example 10, N-[(1R)-1-(3,4-Dimethoxyphenyl)ethyl]-2-methyl-5-[(1S,5R)-3-methyl-3,8-diazabicyclo[3.2.1]octan-8-yl]benzamide] | < 100 |

Same assay, conditions: 60 nM papain-like protease, 50 μM Z-RLRGG-AMC, pH 7.5, 37° C.; read-out: SARS-CoV-2 PLpro IC50

| SMILES | IC50 [µM] |
| --- | --- |
| C[C@@H](NC(=O)c1cccc(N2CCCCC2)c1)c1cccc2ccccc12 [Example 1, N-[(1R)-1-(1-naphthyl)ethyl]-3-(1-piperidyl)benzamide] | > 100 |
| C[C@@H](NC(=O)c1cc(-c2ccccc2)ccn1)c1cccc2ccccc12 [Example 3, N-[(1R)-1-(1-Naphthyl)ethyl]-4-phenyl-pyridine-2-carboxamide] | > 100 |
| Cc1ccc(-c2ccccc2)cc1C(=O)N[C@H](C)c1cccc2ccccc12 [Example 5, 2-Methyl-N-[(1R)-1-(1-naphthyl)ethyl]-5-phenyl-benzamide] | > 100 |
| CC(=O)N1CCC(c2cccc(C(=O)N[C@H](C)c3cccc4ccccc34)c2)CC1 [Example 7, 3-(1-Acetyl-4-piperidyl)-N-[(1R)-1-(1-naphthyl)ethyl]benzamide] | > 100 |
| Cc1cnc(N2CCN(C)CC2)nc1C(=O)N[C@H](C)c1cccc2ccccc12 [Example 8, 5-Methyl-2-(4-methylpiperazin-1-yl)-N-[(1R)-1-(naphthalen-1-yl)ethyl]pyrimidine-4-carboxamide Hydrochloride Salt] | < 100 |
| C[C@@H](NC(=O)c1cc(N2CCN(C)CC2)ccn1)c1cccc2ccccc12 [Example 14, 4-(4-Methylpiperazin-1-yl)-N-[(1R)-1-(1-naphthyl)ethyl]pyridine-2-carboxamide] | > 100 |
| Cc1ccc(N2CCN(C(=O)OC(C)(C)C)CC2)cc1C(=O)N[C@H](C)c1cccc2ccccc12 [Example 28, tert-Butyl 4-[4-methyl-3-[(1R)-1-(1-naphthyl)ethyl]carbamoyl]phenyl]piperazine-1-carboxylate] | < 100 |
| Cc1ccc(N2CCN(C)CC2)cc1C(=O)N(C)[C@H](C)c1cccc2ccccc12 [Example 35, N,2-Dimethyl-5-(4-methylpiperazin-1-yl)-N-[(1R)-1-(1-naphthyl)ethyl]benzamide] | < 100 |
| COc1ccc([C@@H](C)NC(=O)c2cc(N3CC4(CNC4)C3)ccc2C)cc1OC [Example 37, 5-(2,6-Diazaspiro[3.3]heptan-2-yl)-N-[(1R)-1-(3,4-dimethoxyphenyl)ethyl]-2-methyl-benzamide] | < 20 |
| Cc1ccc(N2CCN(C)CC2)cc1C(=O)N[C@H](C)c1cccc(S(C)(=O)=O)c1 [Example 38, 2-Methyl-5-(4-methylpiperazin-1-yl)-N-[(1R)-1-(3-methylsulfonylphenyl)ethyl] benzamide] | < 20 |
| Cc1ccc(N2CCN(C)CC2)cc1C(=O)N[C@H](C)c1cccc(-c2ccncc2)c1 [Example 51, 2-Methyl-5-(4-methylpiperazin-1-yl)-N-[(1R)-1-[3-(4-pyridyl)phenyl]ethyl]benzamide] | < 2 |
| Cc1ccc(N2CCN(C)CC2)cc1C(=O)N[C@H](C)c1cccc(CCC(=O)O)c1 [Example 82, 3-[3-[(1R)-1-[[2-Methyl-5-(4-methylpiperazin-1-yl)benzoyl]amino]ethyl]phenyl] propanoic Acid] | < 100 |
| Cc1ccc(N2CCN(C)CC2)cc1C(=O)N[C@H](C)c1cccc(-c2cccc(C(=O)O)c2)c1 [Example 83, 3-[3-[(1R)-1-[[2-Methyl-5-(4-methylpiperazin-1-yl)benzoyl]amino]ethyl]phenyl]benzoic Acid] | < 5 |
| Cc1ccc(N2CCN(C)CC2)cc1C(=O)N[C@H](C)c1cccc(CCC(=O)N(C)C)c1 [Example 84, N-[(1R)-1-[3-[3-(Dimethylamino)-3-oxo-propyl]phenyl]ethyl]-2-methyl-5-(4-methylpiperazin-1-yl)benzamide] | < 20 |
| Cc1ccc(N2CCN(S(C)(=O)=O)CC2)cc1C(=O)N[C@H](C)c1cccc2ccccc12 [Example 110, 2-Methyl-5-(4-methylsulfonylpiperazin-1-yl)-N-[(1R)-1-(1-naphthyl)ethyl]benzamide] | > 100 |
| Cc1ccc(N2CC[C@H](O)C2)cc1C(=O)N[C@H](C)c1cccc2ccccc12 [Example 119, 5-[(3S)-3-Hydroxypyrrolidin-1-yl]-2-methyl-N-[(1R)-1-(1-naphthyl)ethyl]benzamide] | < 100 |
| Cc1ccc(N2CCN(C)CC2)cc1C(=O)N[C@H](C)c1cnn(C)c1 [Example 127, 2-Methyl-5-(4-methylpiperazin-1-yl)-N-[(1R)-1-(1-methylpyrazol-4-yl)ethyl]benzamide] | < 100 |
| C[C@@H](NC(=O)c1cc(N2CCN(CC(F)(F)F)CC2)ccc1Cl)c1cccc2ccccc12 [Example 131, 2-Chloro-N-[(1R)-1-(1-naphthyl)ethyl]-5-[4-(2,2,2-trifluoroethyl)piperazin-1-yl]benzamide] | > 100 |
| C[C@@H](NC(=O)c1cc(N2CCNC(C(F)(F)F)C2)ccc1Cl)c1cccc2ccccc12 (stereo partly drawn) [Example 132, 2-Chloro-N-[(1R)-1-(1-naphthyl)ethyl]-5-[3-(trifluoromethyl)piperazin-1-yl]benzamide] | < 100 |
| C[C@@H](NC(=O)c1cccc(-c2ccnc(N3CCN(C)CC3)n2)c1)c1cccc2ccccc12 [Example 137, 3-[2-(4-Methylpiperazin-1-yl)pyrimidin-4-yl]-N-[(1R)-1-(1-naphthyl)ethyl]benzamide] | > 100 |
| C[C@@H](NC(=O)c1cccc(-c2ccnc(N3CCOCC3)n2)c1)c1cccc2ccccc12 [Example 138, 3-(2-Morpholinopyrimidin-4-yl)-N-[(1R)-1-(1-naphthyl)ethyl]benzamide] | > 100 |
| Cc1ccc(-c2ccncc2)cc1C(=O)N[C@H](C)c1cccc2ccccc12 [Example 139, 2-Methyl-N-[(1R)-1-(1-naphthyl)ethyl]-5-(4-pyridyl)benzamide] | < 20 |
| Cc1ccc(-c2cccc(CCN3CCOCC3)c2)cc1C(=O)N[C@H](C)c1cccc2ccccc12 [Example 141, 2-Methyl-5-[3-(2-morpholinoethyl)phenyl]-N-[(1R)-1-(1-naphthyl)ethyl]benzamide] | > 100 |
| Cc1ccc(-c2cccc(CCO)c2)cc1C(=O)N[C@H](C)c1cccc2ccccc12 [Example 142, 5-[3-(2-Hydroxyethyl)phenyl]-2-methyl-N-[(1R)-1-(1-naphthyl)ethyl]benzamide] | > 100 |
| Cc1ccc(-c2cccnc2)cc1C(=O)N[C@H](C)c1cccc2ccccc12 [Example 143, 2-Methyl-N-[(1R)-1-(1-naphthyl)ethyl]-5-(3-pyridyl)benzamide] | < 20 |
| C[C@@H](NC(=O)c1cc(-c2ccc(CN3CCN(C)CC3)cc2)ccc1Cl)c1cccc2ccccc12 [Example 145] | < 100 |
| C[C@@H](NC(=O)c1cc(-c2ccncc2)cn1C)c1cccc2ccccc12 [Example 148, 1-Methyl-N-[(1R)-1-(1-naphthyl)ethyl]-4-(4-pyridyl)pyrrole-2-carboxamide] | > 100 |
| C[C@@H](NC(=O)c1cc(C2=CCNC2)cn1C)c1cccc2ccccc12 [Example 149, 4-(2,5-Dihydro-1H-pyrrol-3-yl)-1-methyl-N-[(1R)-1-(1-naphthyl)ethyl]pyrrole-2-carboxamide Hydrochloride Salt] | < 100 |
| C[C@@H](NC(=O)c1cc(C2CCNC2)cn1C)c1cccc2ccccc12 (stereo partly drawn) [Example 150, 1-Methyl-N-[(1R)-1-(1-naphthyl)ethyl]-4-pyrrolidin-3-yl-pyrrole-2-carboxamide] | < 100 |
